Tests used:
[1] = Cytotoxicity against human COLO205 cells after 48 hrs by MTT assay; conditions: COLO 205, 48 h
[2] = Cytotoxicity against human HL60 cells after 48 hrs by MTT assay; conditions: HL-60, 48 h
A498 = assay: Cytotoxicity against human A498 cells after 48 hrs by MTT assay; conditions: A498, 48 h
[3] = Cytotoxicity against human Hep3B cells after 48 hrs by MTT assay
Detroit 551 = assay: Cytotoxicity against human Detroit 551 cells after 48 hrs by MTT assay; conditions: Detroit 551, 48 h
[4] = Cytotoxicity against human H460 cells after 48 hrs by MTT assay; conditions: NCI-H460, 48 h

Row | Structure (SMILES) | IC50 [1] | IC50 [2] | IC50 (A498) | IC50 [3] | IC50 (Detroit 551) | IC50 [4]
1 | OCc1cnc2c(c1)c1ccccc1n2Cc1c(Cl)cccc1Cl | > 50 µM | > 50 µM | > 50 µM | – | – | –
2 | COC(=O)c1cnc2c(c1)c1ccccc1n2Cc1cccc(Cl)c1 | > 50 µM | – | > 50 µM | > 50 µM | > 50 µM | –
3 | COC(=O)c1cnc2c(c1)c1ccccc1n2Cc1ccccc1 | > 50 µM | > 50 µM | > 50 µM | > 50 µM | > 50 µM | > 50 µM
4 | OCc1cnc2c(c1)c1ccccc1n2Cc1ccc2c(c1)OCO2 | > 50 µM | – | > 50 µM | > 50 µM | – | > 50 µM
5 | COC(=O)c1cnc2c(c1)c1ccccc1n2Cc1ccsc1 | > 50 µM | > 50 µM | > 50 µM | > 50 µM | > 50 µM | > 50 µM
6 | OCc1cnc2c(c1)c1ccccc1n2Cc1ccc(Cl)cc1 | > 50 µM | – | > 50 µM | – | > 50 µM | > 50 µM
7 | COc1ccc(Cn2c3ccccc3c3cc(CO)cnc32)cc1 | – | – | – | > 50 µM | > 50 µM | > 50 µM
8 | COC(=O)c1cnc2c(c1)c1ccccc1n2Cc1cc(F)ccc1F | > 50 µM | – | > 50 µM | > 50 µM | – | > 50 µM
9 | COC(=O)c1cnc2c(c1)c1ccccc1n2Cc1ccoc1 | > 50 µM | > 50 µM | > 50 µM | > 50 µM | > 50 µM | > 50 µM
10 | COC(=O)c1cnc2c(c1)c1ccccc1n2Cc1c(F)cccc1F | > 50 µM | > 50 µM | > 50 µM | > 50 µM | > 50 µM | > 50 µM
11 | COC(=O)c1cnc2c(c1)c1ccccc1n2Cc1cccc(Cl)c1Cl | > 50 µM | – | > 50 µM | > 50 µM | > 50 µM | > 50 µM
12 | OCc1cnc2[nH]c3ccccc3c2c1 | – | 49.7 µM | – | – | > 50 µM | –
13 | COC(=O)c1cnc2c(c1)c1ccccc1n2Cc1ccc2c(c1)OCO2 | > 50 µM | > 50 µM | > 50 µM | > 50 µM | > 50 µM | > 50 µM
14 | OCc1cnc2c(c1)c1ccccc1n2Cc1c(F)cccc1F | > 50 µM | – | > 50 µM | > 50 µM | – | > 50 µM
15 | COC(=O)c1cnc2c(c1)c1ccccc1n2Cc1cc(OC)c(OC)c(OC)c1 | – | – | > 50 µM | – | > 50 µM | –
16 | OCc1cnc2c(c1)c1ccccc1n2Cc1ccsc1 | > 50 µM | > 50 µM | > 50 µM | – | > 50 µM | > 50 µM
17 | COC(=O)c1cnc2c(c1)c1ccccc1n2Cc1cc(OC)cc(OC)c1 | – | – | > 50 µM | – | – | –
18 | COc1cc(Cn2c3ccccc3c3cc(CO)cnc32)cc(OC)c1 | – | – | – | – | > 50 µM | –
19 | COC(=O)c1cnc2c(c1)c1ccccc1n2Cc1ccccc1F | > 50 µM | > 50 µM | > 50 µM | > 50 µM | > 50 µM | > 50 µM
20 | COC(=O)c1cnc2c(c1)c1ccccc1n2Cc1cc(F)cc(F)c1 | > 50 µM | > 50 µM | > 50 µM | > 50 µM | > 50 µM | > 50 µM
21 | OCc1cnc2c(c1)c1ccccc1n2Cc1ccc(Cl)c(Cl)c1 | – | – | – | – | > 50 µM | –
22 | COC(=O)c1cnc2c(c1)c1ccccc1n2Cc1ccc(F)cc1F | > 50 µM | > 50 µM | > 50 µM | > 50 µM | > 50 µM | > 50 µM
23 | OCc1cnc2c(c1)c1ccccc1n2Cc1cccs1 | > 50 µM | > 50 µM | > 50 µM | > 50 µM | > 50 µM | > 50 µM
24 | OCc1cnc2c(c1)c1ccccc1n2Cc1ccoc1 | > 50 µM | > 50 µM | > 50 µM | > 50 µM | > 50 µM | > 50 µM

Row | Structure (SMILES) | IC50 [1] | IC50 [2] | IC50 (A498) | IC50 [3] | IC50 (Detroit 551) | IC50 [4]
25 | OCc1cnc2c(c1)c1ccccc1n2Cc1ccccc1Cl | > 50 µM | – | – | – | – | –
26 | COC(=O)c1cnc2c(c1)c1ccccc1n2Cc1ccc(Cl)cc1 | > 50 µM | > 50 µM | > 50 µM | > 50 µM | > 50 µM | > 50 µM
27 | OCc1cnc2c(c1)c1ccccc1n2Cc1ccc(F)c(F)c1 | – | – | > 50 µM | > 50 µM | – | > 50 µM
28 | COC(=O)c1cnc2c(c1)c1ccccc1n2Cc1ccccc1Cl | > 50 µM | – | > 50 µM | > 50 µM | > 50 µM | > 50 µM
29 | OCc1cnc2c(c1)c1ccccc1n2Cc1ccco1 | > 50 µM | > 50 µM | > 50 µM | > 50 µM | > 50 µM | > 50 µM
30 | COC(=O)c1cnc2c(c1)c1ccccc1n2Cc1c(Cl)cccc1Cl | > 50 µM | > 50 µM | > 50 µM | > 50 µM | > 50 µM | > 50 µM
31 | OCc1cnc2c(c1)c1ccccc1n2Cc1ccc(F)cc1F | – | – | > 50 µM | > 50 µM | > 50 µM | > 50 µM
32 | OCc1cnc2c(c1)c1ccccc1n2Cc1ccc(Cl)cc1Cl | – | – | > 50 µM | – | – | –
33 | COC(=O)c1cnc2c(c1)c1ccccc1n2Cc1ccc(Cl)c(Cl)c1 | > 50 µM | – | > 50 µM | > 50 µM | > 50 µM | –
34 | COc1cc(Cn2c3ccccc3c3cc(C(=O)O)cnc32)cc(OC)c1OC | – | > 50 µM | – | – | > 50 µM | –
35 | OCc1cnc2c(c1)c1ccccc1n2Cc1ccccc1 | – | – | > 50 µM | – | – | –
36 | COc1cccc(Cn2c3ccccc3c3cc(CO)cnc32)c1 | – | – | – | – | > 50 µM | –
37 | O=C(O)c1cnc2c(c1)c1ccccc1n2Cc1ccccc1 | > 50 µM | > 100 µM | > 50 µM | > 100 µM | > 100 µM | > 100 µM
38 | COC(=O)c1cnc2c(c1)c1ccccc1n2Cc1ccc(F)cc1 | > 50 µM | > 50 µM | > 50 µM | > 50 µM | > 50 µM | > 50 µM
39 | COC(=O)c1cnc2c(c1)c1ccccc1n2Cc1ccco1 | > 50 µM | > 50 µM | > 50 µM | > 50 µM | > 50 µM | > 50 µM
40 | OCc1cnc2c(c1)c1ccccc1n2Cc1ccc(F)cc1 | > 50 µM | – | > 50 µM | > 50 µM | > 50 µM | > 50 µM
41 | COC(=O)c1cnc2c(c1)c1ccccc1n2Cc1ccc(Cl)cc1Cl | > 50 µM | > 50 µM | > 50 µM | > 50 µM | > 50 µM | > 50 µM
42 | COC(=O)c1cnc2c(c1)c1ccccc1n2Cc1ccc(F)c(F)c1 | > 50 µM | – | > 50 µM | > 50 µM | – | > 50 µM
43 | COc1cc(Cn2c3ccccc3c3cc(C(=O)O)cnc32)cc(OC)c1 | > 50 µM | – | – | – | > 100 µM | > 50 µM
44 | COC(=O)c1cnc2c(c1)c1ccccc1n2Cc1cccc(OC)c1 | > 50 µM | – | > 50 µM | – | > 50 µM | –
45 | COC(=O)c1cnc2[nH]c3ccccc3c2c1 | > 50 µM | – | – | > 50 µM | > 50 µM | –
46 | COC(=O)c1cnc2c(c1)c1ccccc1n2Cc1ccc(OC)cc1 | > 50 µM | > 50 µM | > 50 µM | > 50 µM | – | > 50 µM
47 | COC(=O)c1cnc2c(c1)c1ccccc1n2Cc1cccs1 | > 50 µM | > 50 µM | > 50 µM | > 50 µM | > 50 µM | > 50 µM
